In patent US6596878B2, “Methods and compositions for inhibiting cell proliferative disorders” (Yissum Research & Development Company of the Hebrew …, priority 1994, dated 2003):
Where “and” joins values, the source holds several entries; their conditions need not be identical. Equal entries are not always repeated. Where two headings read alike, the source gives them in different places.

Assays:
[1] = molecular target: T1, human EGF receptor (Homo sapiens, UniProt P00533); assay: EGF-receptor whole cell kinase assay (EGFR-3T3); type: cell-based
T1 construct: expressed in transfected cells; host or cells: NIH3T3 clone C7 (EGFR/C7; mouse fibroblasts)
Protocol: (§1) The following target cells were used for cellular kinaseassays: NIH3T3 clone C7 (Honegger et al., supra) engineered to over-express human EGF receptor; NIH3T3 cells engineered to over-express a chimeric receptor containing the EGFR extracellular domain and the HER2 intracellular kinase domain; the human mammary carcinoma line BT474 (ATCC HTB2) expressing HER2; and the human glioblastoma line U1242 that expresses PDGFR-β. Growth assays were carried out using human mammary epithelial SKBR3 (ATCC HTB30) cells, SKOV3 (ATCC HTB77) human ovarian cancer cell line, A431 cells, MCF7 human breast carcinoma cells, MCF7 cells overexpress the HER2 kinase (MCF7-HER2), NIH3T3 cells, and NIH3T3 cells overexpressing the HER2 kinase (3T3-HER2).
Unless otherwise stated the effect of various compounds on receptor tyrosine kinases were assayed as described in this section.
1. EGF-receptor Whole Cell Kinase Assay
EGFR kinase activity (EGFR-3T3 assay) in whole cells was measured as described below:
The following protocol was used:
A. Coat ELISA plates (Corning, 96 well, Cat. #25805-96) with 05-101 antibody at 0.5 μg per well in PBS, 150 μl final volume/well, and store overnight at 4° C. Coated plates are good for up to 10 days when stored at 4° C.
B. On day of use, remove coating buffer and replace with blocking buffer (5% Carnation Instant Non-Fat Dry Milk in PBS). Incubate the plate, shaking, at room temperature (about 23° C. to 25° C.) for 30 minutes. Just prior to use, remove blocking buffer and wash plate 4 times with TBST buffer.
A. EGFR/C7 cell line (Honegger, et al., Cell 51:199-209, 1987) can be use for this assay.
B. Choose dishes having 80-90% confluence for the experiment. Trypsinize cells and stop reaction by adding 10% CS DMEM medium. Suspend cells in DMEM medium (10% CS DMEM medium) and centrifuge once at 1000 rpm, and once at room temperature for 5 minutes.
C. Resuspend cells in seeding medium (DMEM, 0.5% bovine serum), and count the cells using trypan blue. Viability above 90% is acceptable. Seed cells in DMEM medium (0.5% bovine serum) at a density of 10,000 cells per well, 100 μl per well, in a 96 well microtiter plate. Incubate seeded cells in 5% CO2 at 37° C. for about 40 hours.
A. Check seeded cells for contamination using an inverted microscope. Dilute drug stock (10 mg/ml in DMSO) 1:10 in DMEM medium, then transfer 5 μl to a test well for a final drug dilution of 1:200 and a final DMSO concentration of […]. Control wells receive DMSO alone. Incubate in 5% CO2 at 37° C. for one hour.
B. Prepare EGF ligand: dilute stock EGF in DMEM so that upon transfer of 10 μl dilute EGF (1:12 dilution), 25 nM final concentration is attained.
C. Prepare fresh HNTG* sufficient for 100 μl per well; and place on ice.
D. After two hours incubation with drug, add prepared EGF ligand to cells, 10 μl per well, to yield a final concentration of 25 nM. Control wells receive DMEM alone. Incubate, shaking, at room temperature, for 5 minutes.
E. Remove drug, EGF, and DMEM. Wash cells twice with PBS. Transfer HNTG* to cells, 100 μl per well. Place on ice for 5 minutes. Meanwhile, remove blocking buffer from other ELISA plate and wash with TBST as described above.
F. With a pipette tip securely fitted to a micropipettor, scrape cells from plate and homogenize cell material by repeatedly aspirating and dispensing the HNTG* lysis buffer. Transfer lysate to a coated, blocked, and washed ELISA plate. Incubate shaking at room temperature for one hour.
G. Remove lysate and wash 4 times with TBST. Transfer freshly diluted anti-Ptyr antibody to ELISA plate at 100 μl per well. Incubate shaking at room temperature for 30 minutes in the presence of the anti-Ptyr antiserum (1:3000 dilution in TBST).
H. Remove the anti-Ptyr antibody and wash 4 times with TBST. Transfer the freshly diluted TAGO anti-rabbit IgG antibody to the ELISA plate at 100 μl per well.

[2] = tested on: MCF7 human breast carcinoma cells; assay: MCF-7 SRB growth assay; type: cell-based; conditions: Table VI, 10% FBS, four days
Text: as §1, with “This example illustrates the ability of the exemplary compounds to inhibit receptor tyrosine kinases, such as HER2 and/or EGFR. The” for “The”
6. MCF-7 SRB Growth Assay
MCF-7 cells are seeded at 2000 cells/ well in a 96-well flat bottom plate in normal growth media, which was 10% FBS/RPMI supplemented with 2 mM Glutamine. The plate of cells is incubated for about 24 hours at 37° C. after which it receives an equal volume of compound dilution per well making the total volume per well 200 μl. The compound is prepared at 2 times the desired highest final concentration and serially diluted in the normal growth media in a 96-well round bottom plate and then transferred to plate of cells. DMSO serves as the vector control up to 0.2% as final concentration. The cells are then incubated at 37° C. in a humidified 5% CO2 incubator.
Four days following dosing of compound, the media is discarded and 200 μl/well of ice-cold 10% TCA (Trichloroacetic Acid) is added to fix cells. After 60 minutes at 4° C., the TCA is discarded and the plate is rinsed 5 times with water. The plate is then air-dried and 100 μl/well of 0.4% SRB (Sulforhodamine B from Sigma) in 1% Acetic Acid is added to stain cells for 10 minutes at room temperature. The SRB is discarded and the plate is rinsed 5 times with 1% Acetic Acid. After the plate is completely dried, 100 μl/well of 10 mM Tris-base is added to solubilize the dye. After 5 to 10 minutes, the plate is read on a Dynatech ELISA Plate Reader at dual wavelengths at 570 nm and 630 nm.

[3] = Table VI, cellular kinase assay, read-out: EGFR-3T3
[4] = Table V, read-out: Estimated IC50 Cellular Kinase Assays EGFR (EGF-3T3)

Molecule	IC50 [1, 3] [µM]	IC50 ([2]; Homo sapiens, MCF7, 96 h) [µM]	IC50 [1, 4]	IC50 [2] [µM]
CC(C)(C)c1cc(/C=C(\C#N)S(=O)(=O)c2ccccn2)cc(C(C)(C)C)c1O [Compound M34, (E)-3-(3,5-di-t-Butyl-4-hydroxyphenyl)-2-[(pyrid-2-yl)sulfonyl]acrylonitrile]	> 100	2		
CC(C)c1cc(C=C(C#N)C(N)=C(C#N)C#N)cc(C(C)C)c1O [Compound M22, (E)-2-(1-Amino-2,2-dicyanoethenyl-3-(3,5-diisopropyl-4-hydroxyphenyl)acrylonitrile)]	> 50	44		
CC(C)c1cc(/C=C(\C#N)C(=S)NCCCc2ccccc2)cc(C(C)C)c1O [Compound M24, (E)-3-(3,5-Diisopropyl-4-hyrdroxyphenyl)-2-[(3-phenyl-n-propyl)aminothiocarbonyl]acrylonitrile]	> 50	8		
N#C/C(=C\c1ccc(O)c(O)c1)C(=S)NCc1ccccc1 [Compound M13]	> 100		> 100 µM	
CC(C)(C)c1cc(/C=C(\C#N)C(=O)Nc2ccc(C(F)(F)F)cc2)cc(C(C)(C)C)c1O [Compound M35, (E)-3-(3,5-di-t-Butyl-4-hydroxyphenyl)-2-[(4-trifluoromethyl)phenylaminocarbonyl]acrylonitrile]	> 100	0.3		
CC(C)c1cc(/C=C(\C#N)S(=O)(=O)CC#N)cc(C(C)C)c1O [Compound M27]	> 50	33		
N#C/C(=C\c1ccc(O)c(O)c1)C(=O)Nc1cccc(C(F)(F)F)c1 [Compound M15]	> 100	15	> 100 µM	
Cc1cc(/C=C(\C#N)S(=O)(=O)c2ccccn2)cc(C)c1O [Compound M32]	64			
Cc1cc(/C=C(\C#N)S(=O)(=O)c2ccccc2)cc(C)c1O [Compound M31]	> 100			
CC(C)(C)c1cc(/C=C(\C#N)S(=O)(=O)c2ccccc2)cc(C(C)(C)C)c1O [Compound M33, (E)-3-(3,5-di-t-Butyl-4-hydroxyphenyl)-2-(phenylsulfonyl)acrylonitrile]	> 100	1		
(E,E)-2-[[-Cyano-2-(3,5-diisopropyl-4-hydroxyphenyl)ethenyl]sulfonyl]-3-(3,5-di-t-butyl-4-hydroxyphenyl)acrylonitrile [Compound M37]	> 100			3
N#C/C(=C\c1cc(O)c(O)c(I)c1)C(=O)NCCCc1ccccc1 [Compound M16]	9		4 µM and 4.4 µM	
CC(C)c1cc(/C=C(\C#N)C(=O)NCCCc2ccccc2)cc(C(C)C)c1O [Compound M21, (E)-3-(3,5-Diisopropyl-4-hydroxyphenyl)-2-[(3-phenyl-n-propyl)aminocarbonyl]acrylonitrile]	> 100	14		
CC(C)(C)c1cc(/C=C(\C#N)S(=O)(=O)CC#N)cc(C(C)(C)C)c1O [Compound M36, (E)-3-(3,5-di-t-Butyl-4-hydroxyphenyl)-2-(cyanomethylsulfonyl)acrylonitrile]	56	8		
CC(C)c1cc(/C=C(\C#N)S(=O)(=O)c2ccccc2)cc(C(C)C)c1O [Compound M30]	61	9		
CC(C)(C)c1cc(/C=C(\C#N)C(N)=S)cc(C(C)(C)C)c1O [Compound M11]	21	4	40 µM	
CC(C)(C)c1cc(/C=C(\C#N)C(=O)NCCCc2ccccc2)cc(C(C)(C)C)c1O [Compound M20, (E)-3-(3,5-di-t-Butyl-4-hydroxyphenyl)-2-[(3-phenyl-n-propyl)aminocarbonyl]acrylonitrile]	> 100	6		
CC(C)c1cc(/C=C(\C#N)S(=O)(=O)/C(C#N)=C/c2cc(C(C)C)c(O)c(C(C)C)c2)cc(C(C)C)c1O [Compound M29]	> 50	12		
CC(C)c1cc(/C=C(\C#N)S(=O)(=O)c2ccccn2)cc(C(C)C)c1O [Compound M26]	> 100			
